The results in this text go back to patent US5618812A, “Benzodiazepine derivatives” (Merck Sharp & Dohme, Ltd., priority 1992, dated 1997).

Usually IC50 stands for the concentration at which inhibition is half-maximal.

SMILES strings stand for the structures.

The target of one assay is T1, CCK-A (Rattus norvegicus, UniProt P30551).
T1 sequence (P30551 1-444): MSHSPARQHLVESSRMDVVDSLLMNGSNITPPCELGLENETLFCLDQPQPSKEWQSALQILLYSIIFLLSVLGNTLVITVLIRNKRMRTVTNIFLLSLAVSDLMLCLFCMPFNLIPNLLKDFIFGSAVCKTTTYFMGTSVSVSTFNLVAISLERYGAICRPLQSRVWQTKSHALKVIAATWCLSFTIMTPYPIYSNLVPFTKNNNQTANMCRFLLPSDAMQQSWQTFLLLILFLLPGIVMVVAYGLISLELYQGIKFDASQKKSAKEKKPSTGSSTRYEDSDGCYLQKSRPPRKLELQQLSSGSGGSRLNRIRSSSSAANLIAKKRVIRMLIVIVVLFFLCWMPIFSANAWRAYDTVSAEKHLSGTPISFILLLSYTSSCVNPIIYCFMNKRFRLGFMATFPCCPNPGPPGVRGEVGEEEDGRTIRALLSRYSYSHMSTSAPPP
In words: biochemical. Type of assay: binding. The conditions noted are these: rat pancreas (CCK-A), 125I-CCK; read-out: CCK RECEPTOR BINDING RESULTS IC50 125I-CCK Pancreas. The method, then:
The CCK-A and CCK-B antagonising activity of the compounds described herein was evaluated using the assays described in published European patent application no. 0514133. The method essentially involves determining the concentration of the test compound required to displace 50% of the specific ^125 I-CCK from rat pancreas (CCK-A) or guinea pig brain (CCK-B).

For the next assay, the target named is T2, CCK-B (Cavia porcellus, UniProt H0VZC5).
T2 construct: guinea pig brain (CCK-B); from tissue; host or cells: guinea pig brain
T2 sequence (H0VZC5 1-426): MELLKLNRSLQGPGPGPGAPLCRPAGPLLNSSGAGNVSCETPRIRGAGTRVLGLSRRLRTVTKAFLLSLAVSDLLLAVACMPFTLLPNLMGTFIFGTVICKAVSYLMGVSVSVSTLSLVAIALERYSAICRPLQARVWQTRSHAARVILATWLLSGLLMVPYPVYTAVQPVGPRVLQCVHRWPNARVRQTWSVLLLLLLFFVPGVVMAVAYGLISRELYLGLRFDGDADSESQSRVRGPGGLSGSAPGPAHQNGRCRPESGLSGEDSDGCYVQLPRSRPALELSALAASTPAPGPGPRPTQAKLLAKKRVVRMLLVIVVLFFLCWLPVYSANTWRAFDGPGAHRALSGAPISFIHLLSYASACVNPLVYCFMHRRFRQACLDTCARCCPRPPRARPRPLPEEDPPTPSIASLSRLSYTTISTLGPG
In words: displacement of specific 125I-CCK from guinea pig brain (CCK-B receptor binding). The following applies: read-out: CCK RECEPTOR BINDING RESULTS IC50 125I-CCK Brain. The method, then:
The CCK-A and CCK-B antagonising activity of the compounds described herein was evaluated using the assays described in published European patent application no. 0514133. The method essentially involves determining the concentration of the test compound required to displace 50% of the specific ^125 I-CCK from rat pancreas (CCK-A) or guinea pig brain (CCK-B). The data in Table 1 were obtained for compounds of the Examples.

Regarding `CC(C)CN1C(=O)C(NC(=O)c2cc3ccccc3[nH]2)N=C(N2CCC(C)CC2)c2ccccc21` (racemic) [Example 95, 3(R,S)-N-(2,3-Dihydro-5-(4-methylpiperidin-1-yl)-1-(2-methylpropyl)-2-oxo-1H-1,4-benzodiazepin-3-yl)-1H-indole-2-carboxamide], the IC50 at CCK-A stood at 11.6 nM; on CCK-B it was 161 nM.
For `CC1CCN(C2=NC(NC(=O)Nc3cccc(N4CCN(C)CC4)c3)C(=O)N(C)c3ccccc32)CC1` (racemic) [Example 96, N-[3(R,S)-2,3-Dihydro-1-methyl-5-(4-methylpiperidin-1-yl)-2-oxo-1H-1,4-benzodiazepin-3-yl]N'-[3-(N-methyl-N'-piperazinyl)phenyl]urea], the IC50 is 94.1 nM on CCK-A and 148 nM at CCK-B.
As to `Cc1cccc(NC(=O)NC2N=C(N3C[C@H]4CCCC[C@H]4C3)c3ccccc3N(C)C2=O)c1` (relative stereo) [Example 57, N-[3(R,S)-2,3-Dihydro-1-methyl-5-(cis-octahydroisoindol-2-yl)-2-oxo-1H-1,4-benzodiazepin-3-yl]-N'-[3-methylphenyl]urea], the results for the IC50 on CCK-A and on CCK-B were 12.3 nM and 4.6 nM, respectively.
On to `CN1C(=O)C(NC(=O)Nc2ccc3c(c2)CCC3)N=C(N2CCC(C)(C)CC2)c2ccccc21` (single isomer, unassigned) [5 (enantiomer A)], for which the IC50 at CCK-A was 738 nM; on CCK-B, 0.49 nM.
As for `CN1C(=O)C(NC(=O)Nc2ccc3c(c2)CCC3)N=C(N2CCC(C)(C)CC2)c2ccccc21` (single isomer, unassigned) [5 (enantiomer B)], the IC50 on CCK-A stood at 7.8 nM; on CCK-B it was 14.8 nM.
In the case of `Cc1cccc(NC(=O)NC2N=C(N3CCC(C)CC3)c3ccccc3N(C)C2=O)c1` (single isomer, unassigned) [8 (enantiomer A)], the IC50 at CCK-A turned out to be 981 nM; at CCK-B it was 0.35 nM.
Turning to `Cc1cccc(NC(=O)NC2N=C(N3CCC(C)CC3)c3ccccc3N(C)C2=O)c1` (single isomer, unassigned) [8 (enantiomer B)], the IC50 worked out at 2.61 nM on CCK-A and 23.2 nM at CCK-B.
For `Cc1cccc(NC(=O)NC2N=C(N3CCC(C)(C)CC3)c3ccccc3N(C)C2=O)c1` (single isomer, unassigned) [10 (enantiomer A)] the same measures were 421 nM and 0.76 nM.
As for `Cc1cccc(NC(=O)NC2N=C(N3CCC(C)(C)CC3)c3ccccc3N(C)C2=O)c1` (single isomer, unassigned) [10 (enantiomer B)], the IC50 at CCK-A amounted to 0.42 nM; at CCK-B, 12.6 nM.
In the case of `COC1CCN(C2=NC(NC(=O)Nc3cccc(C)c3)C(=O)N(C)c3ccccc32)CC1` (single isomer, unassigned) [14 (enantiomer A)], the IC50 at CCK-A is 3220 nM; at CCK-B it was 11.6 nM.
Turning to `COC1CCN(C2=NC(NC(=O)Nc3cccc(C)c3)C(=O)N(C)c3ccccc32)CC1` (single isomer, unassigned) [14 (enantiomer B)], the IC50 is 11.4 nM on CCK-A and 174 nM at CCK-B.
With `C[C@@H]1CCC[C@H](C)N1C1=NC(NC(=O)Nc2ccc3c(c2)CCC3)C(=O)N(C)c2ccccc21` (single isomer, unassigned) [15 (enantiomer A)], the IC50 is 1900 nM on CCK-A and 3.47 nM at CCK-B.
For `C[C@@H]1CCC[C@H](C)N1C1=NC(NC(=O)Nc2ccc3c(c2)CCC3)C(=O)N(C)c2ccccc21` (single isomer, unassigned) [15 (enantiomer B)] the same measures were 163 nM and 75 nM.
Take `CCCN1C(=O)C(NC(=O)Nc2cccc(C)c2)N=C(N2CCC(C)CC2)c2ccccc21` (single isomer, unassigned) [18 (enantiomer A)]: the IC50 on CCK-A stood at 765 nM; at CCK-B it was 0.64 nM.
In the case of `Cc1cccc(NC(=O)NC2N=C(N3CCC(C(F)(F)F)CC3)c3ccccc3N(C)C2=O)c1` (single isomer, unassigned) [20 (enantiomer A)], the values for the IC50 on CCK-A and at CCK-B were 3290 nM and 1.52 nM, respectively.
